Experimental data reported in PubChem BioAssay AID330 (DTP/NCI, 2004).
Where “and” joins values, the source holds several entries; their conditions need not be identical. Identical values can stand only once. Toxic doses and inconclusive results are not listed. How the source made its calls: active means survival T/C of 150% or more; inactive means T/C below 125% in these data.

Tested on: P388 leukemia ip, CD2F1 mice, survival T/C
Test: NCI In Vivo Anticancer Drug Screen. Data for tumor model P388 Leukemia (intraperitoneal) in CD2F1 (CDF1) mice
Conditions: endpoint: median survival time, higher = longer survival
Outline: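 Mice carrying the transplanted tumor received test compound or vehicle. Survival was recorded in each group, and the value is the treated-group measurement divided by that of the vehicle-treated control group.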

[1] = dose: 25.0 mg/kg/injection, schedule: Q01DX009 (ip), vehicle: saline with Tween-80
[2] = dose: 50.0 mg/kg/injection, schedule: Q01DX009 (ip), vehicle: saline with Tween-80
[3] = dose: 100.0 mg/kg/injection, schedule: Q01DX009 (ip), vehicle: saline with Tween-80
[4] = dose: 200.0 mg/kg/injection, schedule: Q01DX009 (ip), vehicle: saline with Tween-80
[5] = dose: 60.0 mg/kg/injection, schedule: Q01DX005 (ip), vehicle: saline with Tween-80
[6] = dose: 120.0 mg/kg/injection, schedule: Q01DX005 (ip), vehicle: saline with Tween-80
[7] = dose: 240.0 mg/kg/injection, schedule: Q01DX005 (ip), vehicle: saline with Tween-80
[8] = dose: 100.0 mg/kg/injection, schedule: Q04DX003 (ip), vehicle: saline with Tween-80
[9] = dose: 200.0 mg/kg/injection, schedule: Q04DX003 (ip), vehicle: saline with Tween-80
[10] = dose: 400.0 mg/kg/injection, schedule: Q04DX003 (ip), vehicle: saline with Tween-80
[11] = dose: 6.25 mg/kg/injection, schedule: Q01DX009 (ip), vehicle: water
[12] = dose: 12.5 mg/kg/injection, schedule: Q01DX009 (ip), vehicle: water
[13] = dose: 25.0 mg/kg/injection, schedule: Q01DX009 (ip), vehicle: water
[14] = dose: 50.0 mg/kg/injection, schedule: Q01DX009 (ip), vehicle: water
[15] = dose: 50.0 mg/kg/injection, schedule: Q01DX009 (ip), vehicle: Klucel (hydroxypropylcellulose) (HPC)
[16] = dose: 100.0 mg/kg/injection, schedule: Q01DX009 (ip), vehicle: Klucel (hydroxypropylcellulose) (HPC)
[17] = dose: 200.0 mg/kg/injection, schedule: Q01DX009 (ip), vehicle: Klucel (hydroxypropylcellulose) (HPC)
[18] = dose: 100.0 mg/kg/injection, schedule: Q01DX009 (ip), vehicle: water
[19] = dose: 100.0 mg/kg/injection, schedule: Q04DX002 (ip), vehicle: saline with Tween-80
[20] = dose: 200.0 mg/kg/injection, schedule: Q04DX002 (ip), vehicle: saline with Tween-80
[21] = dose: 400.0 mg/kg/injection, schedule: Q04DX002 (ip), vehicle: saline with Tween-80
[22] = dose: 100.0 mg/kg/injection, schedule: Q04DX002 (ip), vehicle: saline
[23] = dose: 50.0 mg/kg/injection, schedule: Q01DX005 (ip), vehicle: saline with Tween-80
[24] = dose: 100.0 mg/kg/injection, schedule: Q01DX005 (ip), vehicle: saline with Tween-80
[25] = dose: 50.0 mg/kg/injection, schedule: Q04DX003 (ip), vehicle: saline with Tween-80

Measured: T/C

O=C(CCl)NC(Cc1ccccc1)C(=O)O (centres undefined)
inactive: [1] 99 % of control | [2] 99 % of control and 89 % of control | [3] 100 % of control and 104 % of control | [4] 94 % of control | dose: 400.0 mg/kg/injection, schedule: Q01DX009 (ip), vehicle: saline with Tween-80 103 % of control

CC(C)c1ccc(C(=O)O)cc1
inactive: [2] 103 % of control | [3] 103 % of control | [4] 115 % of control

CCOC(=O)C1=CC(C)(C)OC1=O
inactive: [5] 99 % of control and 106 % of control | [6] 110 % of control and 118 % of control | [7] 101 % of control and 124 % of control

Nc1[nH]nc2nc(-c3ccccc3)cnc12
inactive: [1] 90 % of control | [2] 86 % of control | [3] 90 % of control | [8] 90 % of control | [9] 90 % of control | [10] 90 % of control

CCOC(=O)C(C)n1ncnn1 (centres undefined)
inactive: dose: 50.0 mg/kg/injection, schedule: Q01DX005 (ip), vehicle: saline 107 % of control | dose: 100.0 mg/kg/injection, schedule: Q01DX005 (ip), vehicle: saline 102 % of control | dose: 200.0 mg/kg/injection, schedule: Q01DX005 (ip), vehicle: saline 98 % of control

CCCOn1nnc2ccccc21
inactive: [8] 99 % of control | [9] 102 % of control | [10] 107 % of control

CCC1=CCC2C(=O)c3cc4ccccc4cc3C(=O)C2C1 (centres undefined)
inactive: dose: 6.25 mg/kg/injection, schedule: Q01DX005 (ip), vehicle: saline with Tween-80 103 % of control | dose: 12.5 mg/kg/injection, schedule: Q01DX005 (ip), vehicle: saline with Tween-80 108 % of control | dose: 25.0 mg/kg/injection, schedule: Q01DX005 (ip), vehicle: saline with Tween-80 108 % of control and 93 % of control

[O-][n+]1ccccc1C[P+](c1ccccc1)(c1ccccc1)c1ccccc1
inactive: [11] 99 % of control | [12] 100 % of control and 86 % of control | [13] 95 % of control | [14] 100 % of control and 98 % of control

CCCCC#CCOCC(O)CCl (centres undefined)
inactive: dose: 12.5 mg/kg/injection, schedule: Q01DX009 (ip), vehicle: Klucel (hydroxypropylcellulose) (HPC) 100 % of control | dose: 25.0 mg/kg/injection, schedule: Q01DX009 (ip), vehicle: Klucel (hydroxypropylcellulose) (HPC) 100 % of control | [15] 98 % of control | [16] 100 % of control | [17] 103 % of control

COc1cc(-c2ccc(NC(=O)CC(C)=O)c(OC)c2)ccc1NC(=O)CC(C)=O
inactive: [8] 100 % of control | [9] 100 % of control | [10] 90 % of control

O=C1c2ccccc2C(=O)c2c(NCCCNCCO)ccc(NCCCNCCO)c21
inactive: dose: 3.75 mg/kg/injection, schedule: Q01DX005 (ip), vehicle: other 104 % of control | [11] 101 % of control | dose: 7.5 mg/kg/injection, schedule: Q01DX005 (ip), vehicle: other 111 % of control | dose: 7.5 mg/kg/injection, schedule: Q01DX009 (ip), vehicle: water 110 % of control | [12] 117 % of control | dose: 15.0 mg/kg/injection, schedule: Q01DX005 (ip), vehicle: other 119 % of control | dose: 15.0 mg/kg/injection, schedule: Q01DX009 (ip), vehicle: water 117 % of control | dose: 30.0 mg/kg/injection, schedule: Q01DX005 (ip), vehicle: other 120 % of control | dose: 100.0 mg/kg/injection, schedule: Q01DX009 (ip), vehicle: other 97 % of control | [18] 99 % of control

CN1C(=O)C2CC(O)C(SC3CC4C(=O)N(C)C(=O)C4CC3O)CC2C1=O (centres undefined)
inactive: [13] 98 % of control | [14] 100 % of control | [18] 98 % of control | dose: 200.0 mg/kg/injection, schedule: Q01DX009 (ip), vehicle: water 98 % of control

CC(=O)NN
inactive: [2] 104 % of control | dose: 50.0 mg/kg/injection, schedule: Q04DX003 (ip), vehicle: saline 105 % of control | dose: 100.0 mg/kg/injection, schedule: Q04DX003 (ip), vehicle: saline 100 % of control | dose: 200.0 mg/kg/injection, schedule: Q04DX003 (ip), vehicle: saline 100 % of control

CCOC(=O)C(NC(=O)OCc1ccccc1)C(O)C#C[Si](C)(C)C (centres undefined)
inactive: [19] 95 % of control | [20] 95 % of control | [21] 90 % of control

CC(C)CC1([N+](=O)[O-])CN(C)CC2CCCCN2C1 (centres undefined)
inactive: dose: 25.0 mg/kg/injection, schedule: Q04DX002 (ip), vehicle: water 102 % of control | dose: 50.0 mg/kg/injection, schedule: Q04DX002 (ip), vehicle: water 107 % of control | [22] 102 % of control | dose: 100.0 mg/kg/injection, schedule: Q04DX002 (ip), vehicle: water 99 % of control

C=CCNC(=S)N/N=C(\C)c1cccc(C)n1
inactive: [23] 100 % of control | [24] 100 % of control | dose: 200.0 mg/kg/injection, schedule: Q01DX005 (ip), vehicle: saline with Tween-80 112 % of control

C1CCNCC1.CC(=O)[CH-]C(=O)c1ccccc1.CC(=O)[CH-]C(=O)c1ccccc1.CC(=O)[CH-]C(=O)c1ccccc1.CC(=O)[CH-]C(=O)c1ccccc1.[Eu+3]
inactive: [16] 98 % of control

COc1ccc(CCCc2cc3c(cc2OC)OCO3)cc1
inactive: dose: 60.0 mg/kg/injection, schedule: Q01DX005 (ip), vehicle: Klucel (hydroxypropylcellulose) (HPC) 100 % of control | dose: 120.0 mg/kg/injection, schedule: Q01DX005 (ip), vehicle: Klucel (hydroxypropylcellulose) (HPC) 100 % of control | dose: 240.0 mg/kg/injection, schedule: Q01DX005 (ip), vehicle: Klucel (hydroxypropylcellulose) (HPC) 97 % of control

CC(C)(C)OC(=O)NC(COCc1ccccc1)C(=O)ON1C(=O)CCC1=O (centres undefined)
inactive: [23] 114 % of control | [24] 103 % of control

O=NN1CCN(N=O)CC1
inactive: [1] 113 % of control | [2] 109 % of control | [25] 109 % of control | [8] 104 % of control

COc1ccc2c(c1)-c1nn(CCO)c(-c3ccccn3)c1CC2
inactive: [15] 109 % of control | [16] 106 % of control | [17] 106 % of control

NC(=O)c1cc2c(oc1=O)-c1ccccc1N(C=O)C2
inactive: [5] 100 % of control | [6] 95 % of control | [7] 95 % of control

O=C(N1CCC(CCN2CCCC2)CC1)C(O)(c1ccccc1)c1ccccc1
inactive: dose: 25.0 mg/kg/injection, schedule: Q04DX002 (ip), vehicle: saline 107 % of control | dose: 50.0 mg/kg/injection, schedule: Q04DX002 (ip), vehicle: saline 107 % of control | [22] 106 % of control and 97 % of control

CN=S(=O)(OCCCCOS(=O)(=NC)c1ccc(C)cc1)c1ccc(C)cc1 (centres undefined)
inactive: [25] 116 % of control

COC1(OC)C2(Cl)C(Cl)=C(Cl)C1(Cl)C1C3CC=CC(CC12)S3 (centres undefined)
inactive: [19] 102 % of control | [20] 100 % of control | [21] 99 % of control
